Data on 2 compounds can be found in patent US20020028953A1, “Process for preparing 6-(4-chlorophenyl)-2,2-dimethyl-7-phenyl-2,3-dihydro-1H-pyrrolizin-5-yl-acetic acid” (Merckle GmbH, priority 2000, published 2002).

Like-named read-outs stand apart in the source and are kept apart here.

The nature of data set [1]: stability of the solid form on drying, storage and aging. In kind it is physicochemical.
Data set [2] addresses cyclooxygenase (CO) and lipoxygenase (LO). As to the kind of experiment: inhibitory action on the enzymes cyclooxygenase (CO) and lipoxygenase (LO). Type of data set: biochemical.
Another data set can be described thus: analgesic action. Conditions: result in words.

In the case of `CC1(C)Cc2c(-c3ccccc3)c(-c3ccc(Cl)cc3)c(CC(=O)O)n2C1` [polymorph A, 6-(4-chlorophenyl)-2,2-dimethyl-7-phenyl-2,3-dihydro-1H-pyrrolizin-5-ylacetic Acid], the “chemical stability / oxidative decomposition” value in data set [1] (listed as Polymorph A) was “high chemical stability”. The “stability on drying and storage” value in data set [1] (solvates release solvent at room temperature) is “stable on drying and storage”. The IC50LO/IC50CO in data set [2] (ratio of IC50 lipoxygenase to IC50 cyclooxygenase) was around 1. The “cyclooxygenase and/or lipoxygenase inhibitor” value in data set [2] (result in words) is “potent”. Further, the analgesic action entry in the data set “analgesic action” is “strong”.

As for `CC1(C)Cc2c(-c3ccccc3)c(-c3ccc(Cl)cc3)c(CC(=O)O)n2C1` [amorphous ML 3000], the “chemical stability / oxidative decomposition” value in data set [1] is listed as “relatively severe oxidative decomposition”.
